Results: ChEMBL document CHEMBL1130103, “Doxoform and Daunoform: anthracycline-formaldehyde conjugates toxic to resistant tumor cells” (J Med Chem, 1997)

Experiments:
MCF7 = assay: compound was tested in vitro for inhibition activity against a sensitive human breast carcinoma line cells.; type: functional, cell-based
NCI/ADR-RES = assay: compound was tested in vitro for inhibition activity against doxorubicin resistant counterpart of human breast carcinoma line cells.; type: functional, cell-based

| Compound | IC50 (MCF7) [nM equiv l-1] | IC50 (NCI/ADR-RES) [nM equiv l-1] |
| --- | --- | --- |
| COc1cccc2c1C(=O)c1c(O)c3c(c(O)c1C2=O)C[C@@](O)(C(C)=O)C[C@@H]3OC1CC2C(OCN2CN2COC3C(C)OC(O[C@H]4C[C@](O)(C(C)=O)Cc5c(O)c6c(c(O)c54)C(=O)c4c(OC)cccc4C6=O)CC32)C(C)O1 (stereo partly drawn) [DAUNOFORM] | 8 | 10 |
| COc1cccc2c1C(=O)c1c(O)c3c(c(O)c1C2=O)C[C@@](O)(C(C)=O)C[C@@H]3O[C@H]1C[C@H](N)[C@H](O)[C@H](C)O1 [DAUNORUBICIN] | 60 | 2000 |
| COc1cccc2c1C(=O)c1c(O)c3c(c(O)c1C2=O)C[C@@](O)(C(=O)CO)C[C@@H]3OC1CC2C(OCN2CN2COC3C(C)OC(O[C@H]4C[C@](O)(C(=O)CO)Cc5c(O)c6c(c(O)c54)C(=O)c4c(OC)cccc4C6=O)CC32)C(C)O1 (stereo partly drawn) [DOXOFORM] | 2 | 1 |
| COc1cccc2c1C(=O)c1c(O)c3c(c(O)c1C2=O)C[C@@](O)(C(=O)CO)C[C@@H]3O[C@H]1C[C@H](N)[C@H](O)[C@H](C)O1 [DOXORUBICIN] | 300 | 10000 |
